Source: patent US20190350918A1, “PPARy AGONIST FOR TREATMENT OF HUNTINGTON'S DISEASE” (Coherus Biosciences, Inc., priority 2017, published 2019)

How the values were obtained:
adiponectin [1] = test: 24-week randomized, double-blind, placebo-controlled study in type 2 diabetes subjects: serum adiponectin levels; assay type: in vivo, human
Experimental: A randomized, double-blind, placebo-controlled, 24-week study was conducted in which adiponectin levels were measured. […] 367 subjects with type 2 diabetes (TD2)—a disease in which patient adiponectin levels are reduced—were randomly assigned to receive either 0.5, 1, 2 or 3 milligrams (“mg”) of INT131 besylate, 45 mg of pioglitazone or placebo daily for 24 weeks. To measure adiponectin levels blood was drawn at Weeks 0, 2, 6, 12 and 24. At baseline (Week 0) mean adiponectin levels were 1.94 micrograms per milliliter (“μg/mL”). The mean adiponectin levels at baseline and Week 24, and the mean change in adiponectin levels from baseline (Week 0) to Week 24 are disclosed in Table 1, below. The standard deviation for samples tested in each group is listed in (parenthesis). Mean baseline adiponectin values were similar for the treatment groups.

HbA1c [2] = test: 24-week study in type 2 diabetes subjects: HbA1c levels; assay type: in vivo, human
adiponectin [3] = test: 14-day study in healthy subjects: serum adiponectin levels; assay type: in vivo, human
Experimental: A study was conducted to determine the effect of INT131 on serum adiponectin levels. Thirty healthy subjects were randomly selected to receive either placebo, 0.1 mg INT131, 1 mg INT131 or 4 mg INT131 daily for 14 days. To measure adiponectin levels blood was drawn at Days 1, 4, 8 and 14.

R6/2 Huntington's mice = test: R6/2 Huntington's mice: Huntington disease signs and symptoms; assay type: in vivo, mouse; settings: R6/2 mice; 1 mg/kg, 3 mg/kg, and 6 mg/kg
Experimental: INT-131 is evaluated in R6/2 Huntington's mice. R6/2 mice express mutant human exon 1 of the HTT gene. R6/2 mice develop Huntington phenotypes, which progress over time. These mice display motor and cognitive deficits, cortical cellular degeneration and striatal cellular morphological changes, as well as alterations in cortical and striatal synaptic transmission. In particular, R6/2 mice develop a loss of coordination, tremors, hypokinesis, abnormal gait, neuropathy, and premature death. After mice develop Huntington symptoms, the mice are administered INT-131 or a placebo at a regular dosing interval over a period of time. INT-131 doses include 1 mg/kg, 3 mg/kg, and 6 mg/kg. Huntington disease signs and symptoms are evaluated in each group over the period of time. After mice develop Huntington symptoms, the mice are administered INT-131 or another therapy for treating Huntington's disease at a regular dosing interval over a period of time. INT-131 doses include 1 mg/kg, 3 mg/kg, and 6 mg/kg. Other therapies include those approved for treatment and those in development for treating Huntington's disease.

HbA1c [4] = settings: DePaoli, et al. Diabetes Care 2014; cited from earlier work
[5] = subjects taking INT131 versus pioglitazone; DePaoli, et al. Diabetes Care 2014; cited from earlier work

SMILES: O=S(=O)(Nc1cc(Cl)c(Oc2cnc3ccccc3c2)c(Cl)c1)c1ccc(Cl)cc1Cl [INT131]
- adiponectin levels, treatment comparison with pioglitazone 45 mg (adiponectin [1]; 0.5 mg, 1 mg, and 3 mg doses of INT131, p≤0.0408): statistically significant
- adiponectin levels, treatment comparison with placebo (adiponectin [1]; 1 mg, 2 mg, and 3 mg doses of INT131, p≤0.0109): statistically significant
- mean change in adiponectin from baseline to Week 24 with LOCF (adiponectin [1]; 2 mg group): 3.27 µg/mL
- mean change in adiponectin from baseline to Week 24 with LOCF (adiponectin [1]; INT131 0.5 mg group): 0.56 µg/mL
- mean change in adiponectin from baseline to Week 24 with LOCF (adiponectin [1]; INT131 1 mg group): 1.28 µg/mL
- mean change in adiponectin from baseline to Week 24 with LOCF (adiponectin [1]; INT131 3 mg group): 3.83 µg/mL
- upregulation of serum adiponectin levels compared with pioglitazone (adiponectin [1]; INT131 at either 2 or 3 mg versus 45 mg pioglitazone): greater upregulation
- HbA1c levels as compared to placebo (HbA1c [2]; 1, 2, and 3 mg doses of INT131, 24 weeks): statistically significant reduction
- reduction of HbA1c levels compared with 45 mg of pioglitazone (HbA1c [2]; 2 and 3 mg doses of INT131, 24 weeks): at least as well as 45 mg of pioglitazone
- change in serum adiponectin levels Day 1 to Day 14 and over placebo (adiponectin [3]; 0.1 mg INT131 daily for 14 days): no significant change
- change in serum adiponectin levels over placebo and from Day 1 to Day 14 (adiponectin [3]; 1 mg or 4 mg INT131 daily for 14 days): significant change
- Huntington's disease symptoms versus placebo (R6/2 Huntington's mice): reduced Huntington's disease symptoms
- progression and development of Huntington's disease versus placebo (R6/2 Huntington's mice): slows progression and development
- slowing progression or development and treating signs and symptoms of Huntington's disease versus another therapy (R6/2 Huntington's mice): as effective, or more effective
- reducing HbA1c levels compared with 45 mg of pioglitazone (HbA1c [4]): equally efficacious
- side effects compared with pioglitazone [5]: less edema, weight gain, and hemodilution

SMILES: CCc1ccc(CCOc2ccc(CC3SC(=O)NC3=O)cc2)nc1 (centres unmarked) [Pioglitazone, pioglitazone, reference compound]
- mean change in adiponectin from baseline to Week 24 with LOCF (adiponectin [1]; pioglitazone 45 mg group): 2.96 µg/mL
